Measurements taken from patent publication US11572590B2, “Methods for evaluating tumor cell spheroids using 3D microfluidic cell culture device” (Dana-Farber Cancer Institute, Inc., priority 2017, dated 2023).

Tested on: PDOTS
Assay: Bead-based cytokine profiling of PDOTS after ex vivo checkpoint blockade
Format: cell-based, human
Method: Fresh tumor specimens (murine and human patients) were received in media (DMEM) on ice and minced in a 10 cm dish (on ice) using sterile forceps and scalpel. Minced tumor was resuspended in DMEM ([…], […] sodium pyruvate, 1:100 penicillin-streptomycin) (Corning CellGro, Manassas, Va.) +10% FBS (Gemini Bio-Products, West Sacramento, Calif.), 100 U/mL collagenase type IV (Life Technologies, Carlsbad, Calif.), and 15 mM HEPES (Life Technologies, Carlsbad, Calif.), except for CT26 tumors that were prepared in RPMI. Samples were pelleted and resuspended in 10-20 mL media. Red blood cells were removed from visibly bloody samples using RBC Lysis Buffer (Boston Bio-Products, Ashland, Mass.). […]
Two multiplex assays were performed utilizing a bead-based immunoassay approach, the Bio-Plex Pro™ Human Cytokine 40-plex Assay (Cat #171AK99MR2) and Bio-Plex Pro™ Mouse Cytokine Panel 1, 23-plex (Cat #M60009RDPD) on a Bio-plex 200 system (Cat #171000201). […] Fold changes relative to the MDOT/PDOT control were calculated and plotted as log 2FC. Lower and upper limits of quantitation (LLOQ/ULOQ) were imputed from standard curves for cytokines above or below detection. […]

“CTLA-4 blockade: PDOTS were treated with anti-CTLA-4 (ipilimumab, 50 μg/mL)” was tested, and the “CCL19/CXCL13 induction in PDOTS” value (Day 3, ipilimumab 50 μg/mL alone or with pembrolizumab 250 μg/mL) was “comparatively minimal”.
With “PD-1 blockade: PDOTS were treated with anti-PD-1 (pembrolizumab, 250 μg/mL)” the “PDOTS samples with upregulation of CCL19 and CXCL13” value (Day 3 cytokine release, n=28, pembrolizumab 250 μg/mL) was 23/28.
